Assay results reported in PubChem BioAssay AID1963968 (Molecular Pharmacology Branch, DTP, NCI, 2024).

System: 945468-187-T-J3-PDC spheroids with HUVEC/MSC, viability
Experiment: Anticancer human tumor 945468-187-T-J3-PDC patient-derived rectal carcinoma cell line growth inhibition [PI3K]
Conditions: for IC50: curve of first compound; for viability, T/C: stronger effect = lower value
Outline: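 Targeted small molecules plus PI3K inhibitors, half-log dose series from Cmax (default top 10 microM), were applied to heterotypic spheroids of cancer cells with HUVEC and MSCs. Viability indicated growth inhibition.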

[1] = second compound 0.00316 µM, first compound 0.0316 µM
[2] = second compound 0.00316 µM, first compound 0.1 µM
[3] = second compound 0.01 µM, first compound 0.0316 µM
[4] = second compound 0.01 µM, first compound 0.1 µM
[5] = second compound 0.0316 µM, first compound 0.0316 µM
[6] = second compound 0.0316 µM, first compound 0.1 µM
[7] = second compound 0.1 µM, first compound 0.0316 µM
[8] = second compound 0.1 µM, first compound 0.1 µM
[9] = second compound 0.316 µM, first compound 0.0316 µM
[10] = second compound 0.316 µM, first compound 0.1 µM
[11] = second compound 1 µM, first compound 0.0316 µM
[12] = second compound 1 µM, first compound 0.1 µM
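Note: spheroids exposed to agents for 7 days before viability read.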
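Throughout, for viability, T/C: 100% = DMSO vehicle control viability.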

CC(C)n1nc(-c2ccc3oc(N)nc3c2)c2c(N)ncnc21 + COc1c(OCCCN2CCOCC2)ccc2c3n(c(=NC(=O)c4cnc(N)nc4)nc12)CCN3
IC50 (second compound 0.00316 µM): 0.0761 µM
IC50 (second compound 0.01 µM): 0.0626 µM
IC50 (second compound 0.0316 µM): 0.0256 µM
IC50 (second compound 0.1 µM): < 0.000316 µM
IC50 (second compound 0.316 µM): < 0.000316 µM
IC50 (second compound 1 µM): < 0.000316 µM
viability, T/C (second compound 0.00316 µM, first compound 0.000316 µM): 104%
viability, T/C (second compound 0.00316 µM, first compound 0.001 µM): 85.7%
viability, T/C (second compound 0.00316 µM, first compound 0.00316 µM): 95.1%
viability, T/C (second compound 0.00316 µM, first compound 0.01 µM): 78.7%
viability, T/C [1]: 92.8%
viability, T/C [2]: 37.2%
viability, T/C (second compound 0.01 µM, first compound 0.000316 µM): 97.2%
viability, T/C (second compound 0.01 µM, first compound 0.001 µM): 81.2%
viability, T/C (second compound 0.01 µM, first compound 0.00316 µM): 93.9%
viability, T/C (second compound 0.01 µM, first compound 0.01 µM): 86.2%
viability, T/C [3]: 90.4%
viability, T/C [4]: 22.7%
viability, T/C (second compound 0.0316 µM, first compound 0.000316 µM): 88.7%
viability, T/C (second compound 0.0316 µM, first compound 0.001 µM): 77.2%
viability, T/C (second compound 0.0316 µM, first compound 0.00316 µM): 85%
viability, T/C (second compound 0.0316 µM, first compound 0.01 µM): 78.4%
viability, T/C [5]: 43.6%
viability, T/C [6]: 17.1%
viability, T/C (second compound 0.1 µM, first compound 0.000316 µM): 46%
viability, T/C (second compound 0.1 µM, first compound 0.001 µM): 34%
viability, T/C (second compound 0.1 µM, first compound 0.00316 µM): 33.9%
viability, T/C (second compound 0.1 µM, first compound 0.01 µM): 26.2%
viability, T/C [7]: 20.2%
viability, T/C [8]: 13.6%
viability, T/C (second compound 0.316 µM, first compound 0.000316 µM): 20.6%
viability, T/C (second compound 0.316 µM, first compound 0.001 µM): 21.3%
viability, T/C (second compound 0.316 µM, first compound 0.00316 µM): 21.6%
viability, T/C (second compound 0.316 µM, first compound 0.01 µM): 17.6%
viability, T/C [9]: 16.6%
viability, T/C [10]: 13.7%
viability, T/C (second compound 1 µM, first compound 0.000316 µM): 18.5%
viability, T/C (second compound 1 µM, first compound 0.001 µM): 15.9%
viability, T/C (second compound 1 µM, first compound 0.00316 µM): 14.1%
viability, T/C (second compound 1 µM, first compound 0.01 µM): 13.2%
viability, T/C [11]: 12.6%
viability, T/C [12]: 10.5%

CC1(C)CCC(CN2CCN(c3ccc(C(=O)NS(=O)(=O)c4ccc(NCC5CCOCC5)c([N+](=O)[O-])c4)c(Oc4cnc5[nH]ccc5c4)c3)CC2)=C(c2ccc(Cl)cc2)C1 + COc1c(OCCCN2CCOCC2)ccc2c3n(c(=NC(=O)c4cnc(N)nc4)nc12)CCN3
IC50 (second compound 0.00316 µM): 6.06 µM
IC50 (second compound 0.01 µM): 6.08 µM
IC50 (second compound 0.0316 µM): 6.29 µM
IC50 (second compound 0.1 µM): 1.11 µM
IC50 (second compound 0.316 µM): < 0.0316 µM
IC50 (second compound 1 µM): < 0.0316 µM
viability, T/C [1]: 93.4%
viability, T/C [2]: 106%
viability, T/C (second compound 0.00316 µM, first compound 0.316 µM): 117%
viability, T/C (second compound 0.00316 µM, first compound 1 µM): 91.1%
viability, T/C (second compound 0.00316 µM, first compound 3.16 µM): 116%
viability, T/C (second compound 0.00316 µM, first compound 10 µM): 8%
viability, T/C [3]: 103%
viability, T/C [4]: 90.8%
viability, T/C (second compound 0.01 µM, first compound 0.316 µM): 93.1%
viability, T/C (second compound 0.01 µM, first compound 1 µM): 97.3%
viability, T/C (second compound 0.01 µM, first compound 3.16 µM): 119%
viability, T/C (second compound 0.01 µM, first compound 10 µM): 11.3%
viability, T/C [5]: 107%
viability, T/C [6]: 94%
viability, T/C (second compound 0.0316 µM, first compound 0.316 µM): 114%
viability, T/C (second compound 0.0316 µM, first compound 1 µM): 98.1%
viability, T/C (second compound 0.0316 µM, first compound 3.16 µM): 106%
viability, T/C (second compound 0.0316 µM, first compound 10 µM): 13.7%
viability, T/C [7]: 54%
viability, T/C [8]: 43.4%
viability, T/C (second compound 0.1 µM, first compound 0.316 µM): 50.4%
viability, T/C (second compound 0.1 µM, first compound 1 µM): 53%
viability, T/C (second compound 0.1 µM, first compound 3.16 µM): 48.5%
viability, T/C (second compound 0.1 µM, first compound 10 µM): 8.54%
viability, T/C [9]: 22.1%
viability, T/C [10]: 20.7%
viability, T/C (second compound 0.316 µM, first compound 0.316 µM): 18.1%
viability, T/C (second compound 0.316 µM, first compound 1 µM): 24.3%
viability, T/C (second compound 0.316 µM, first compound 3.16 µM): 25.7%
viability, T/C (second compound 0.316 µM, first compound 10 µM): 5.28%
viability, T/C [11]: 16.7%
viability, T/C [12]: 17.9%
viability, T/C (second compound 1 µM, first compound 0.316 µM): 17.8%
viability, T/C (second compound 1 µM, first compound 1 µM): 19.7%
viability, T/C (second compound 1 µM, first compound 3.16 µM): 17.7%
viability, T/C (second compound 1 µM, first compound 10 µM): 3.81%
